Measured values published in ChEMBL document CHEMBL5465560, “Selectivity Literature for EUbOPEN Chemogenomic Library” (2024).
Each block holds one compound with its values, some of them ahead of it.

Assays:
[1] = target: T1, Rhodopsin kinase GRK7 (Homo sapiens) (UniProt Q8WTQ7); assay: Selectivity interaction (KinomeScan (DiscoverX)) EUB0001079a GRK7; conditions: at 1 µM
T1 sequence (whole entry): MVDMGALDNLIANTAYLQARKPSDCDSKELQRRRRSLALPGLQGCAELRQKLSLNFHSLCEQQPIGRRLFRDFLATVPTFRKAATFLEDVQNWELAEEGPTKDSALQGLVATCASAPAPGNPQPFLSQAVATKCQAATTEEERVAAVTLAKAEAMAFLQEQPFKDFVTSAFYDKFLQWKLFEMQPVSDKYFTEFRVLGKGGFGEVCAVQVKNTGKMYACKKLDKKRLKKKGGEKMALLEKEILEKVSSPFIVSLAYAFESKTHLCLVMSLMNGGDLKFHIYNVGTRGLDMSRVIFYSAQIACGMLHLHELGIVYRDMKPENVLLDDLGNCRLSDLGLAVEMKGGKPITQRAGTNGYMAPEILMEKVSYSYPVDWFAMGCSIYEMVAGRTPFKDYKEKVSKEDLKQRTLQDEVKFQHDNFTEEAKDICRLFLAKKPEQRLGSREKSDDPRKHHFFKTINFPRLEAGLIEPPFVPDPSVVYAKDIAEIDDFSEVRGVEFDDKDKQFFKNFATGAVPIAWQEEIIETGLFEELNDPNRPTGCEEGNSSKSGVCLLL

[2] = target: Angiopoietin-1 receptor (Homo sapiens) (UniProt Q02763); assay: Selectivity interaction (KinomeScan (DiscoverX)) EUB0001079a TEK; conditions: at 1 µM
[3] = target: T2, MAP kinase-activated protein kinase 5 (Homo sapiens) (UniProt Q8IW41); assay: Selectivity interaction (KinomeScan (DiscoverX)) EUB0001619a MAPKAPK5; conditions: at 1 µM
T2 sequence (whole entry): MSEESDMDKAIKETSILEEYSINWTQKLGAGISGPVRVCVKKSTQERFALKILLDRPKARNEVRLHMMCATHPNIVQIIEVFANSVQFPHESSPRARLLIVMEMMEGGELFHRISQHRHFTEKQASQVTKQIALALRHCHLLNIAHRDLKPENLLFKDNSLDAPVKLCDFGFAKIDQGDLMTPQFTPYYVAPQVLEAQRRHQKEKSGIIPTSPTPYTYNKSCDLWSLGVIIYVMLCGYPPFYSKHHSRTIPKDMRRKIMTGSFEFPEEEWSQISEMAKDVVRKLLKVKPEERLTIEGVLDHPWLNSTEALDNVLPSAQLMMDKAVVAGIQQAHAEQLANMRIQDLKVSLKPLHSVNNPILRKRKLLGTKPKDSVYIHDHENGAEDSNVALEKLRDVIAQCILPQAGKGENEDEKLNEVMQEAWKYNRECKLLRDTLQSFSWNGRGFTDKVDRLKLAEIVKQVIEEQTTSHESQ

[4] = system: eIF-2-alpha kinase GCN2 (Homo sapiens), Q9P2K8 [S808G]; conditions: at 10 µM
Chain of eIF-2-alpha kinase GCN2 (Homo sapiens), Q9P2K8 [S808G] (Q9P2K8 whole entry S808G): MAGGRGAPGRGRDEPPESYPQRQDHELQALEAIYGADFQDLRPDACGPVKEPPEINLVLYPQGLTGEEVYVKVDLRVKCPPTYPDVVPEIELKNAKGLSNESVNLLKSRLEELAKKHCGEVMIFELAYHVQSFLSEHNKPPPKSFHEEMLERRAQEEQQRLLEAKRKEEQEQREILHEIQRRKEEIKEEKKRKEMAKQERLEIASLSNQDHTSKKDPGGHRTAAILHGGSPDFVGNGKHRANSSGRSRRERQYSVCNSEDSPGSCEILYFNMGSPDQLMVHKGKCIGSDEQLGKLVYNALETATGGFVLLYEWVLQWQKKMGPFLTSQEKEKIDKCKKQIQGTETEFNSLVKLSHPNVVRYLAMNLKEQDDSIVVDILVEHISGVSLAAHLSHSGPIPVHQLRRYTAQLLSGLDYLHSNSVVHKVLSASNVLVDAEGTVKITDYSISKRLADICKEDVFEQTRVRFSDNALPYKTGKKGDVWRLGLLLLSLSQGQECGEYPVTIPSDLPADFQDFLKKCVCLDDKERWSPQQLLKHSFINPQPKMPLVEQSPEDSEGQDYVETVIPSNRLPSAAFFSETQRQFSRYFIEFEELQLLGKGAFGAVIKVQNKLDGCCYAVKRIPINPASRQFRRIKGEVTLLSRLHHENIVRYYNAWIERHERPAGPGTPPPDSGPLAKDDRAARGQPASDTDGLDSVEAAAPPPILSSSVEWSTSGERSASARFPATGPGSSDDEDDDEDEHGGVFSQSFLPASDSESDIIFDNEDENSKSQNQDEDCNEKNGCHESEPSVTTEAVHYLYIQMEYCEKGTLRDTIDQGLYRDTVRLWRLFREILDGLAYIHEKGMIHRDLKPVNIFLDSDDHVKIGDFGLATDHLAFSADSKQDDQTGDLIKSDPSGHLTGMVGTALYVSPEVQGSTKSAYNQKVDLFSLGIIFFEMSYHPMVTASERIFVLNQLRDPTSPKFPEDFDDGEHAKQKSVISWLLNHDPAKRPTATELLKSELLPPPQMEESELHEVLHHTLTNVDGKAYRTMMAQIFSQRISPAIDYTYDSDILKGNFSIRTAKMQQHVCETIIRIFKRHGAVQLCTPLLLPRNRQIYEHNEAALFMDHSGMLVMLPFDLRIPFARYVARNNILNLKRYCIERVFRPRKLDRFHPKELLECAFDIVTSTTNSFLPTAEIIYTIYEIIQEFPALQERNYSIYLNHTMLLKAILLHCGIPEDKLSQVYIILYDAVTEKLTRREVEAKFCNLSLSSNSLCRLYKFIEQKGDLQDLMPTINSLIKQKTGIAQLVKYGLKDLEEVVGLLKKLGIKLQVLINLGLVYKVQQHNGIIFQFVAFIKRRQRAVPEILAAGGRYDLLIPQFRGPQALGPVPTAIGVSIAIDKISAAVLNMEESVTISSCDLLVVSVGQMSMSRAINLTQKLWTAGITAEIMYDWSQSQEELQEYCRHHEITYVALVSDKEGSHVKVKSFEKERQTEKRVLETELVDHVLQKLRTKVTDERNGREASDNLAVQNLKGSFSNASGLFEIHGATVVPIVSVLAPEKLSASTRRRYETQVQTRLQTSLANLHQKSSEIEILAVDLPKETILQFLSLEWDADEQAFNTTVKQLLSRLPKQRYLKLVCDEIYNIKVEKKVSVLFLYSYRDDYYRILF

Aurora kinase B = Aurora kinase B (Homo sapiens, UniProt Q96GD4); assay: Selectivity interaction (ActivX KiNativ screen (kinase selectivity in THP-1 cell lysates)) EUB0000639a AURKB; assay type: subcellular; conditions: lysate, at 5 µM
Chain of Aurora kinase B (Q96GD4 whole entry): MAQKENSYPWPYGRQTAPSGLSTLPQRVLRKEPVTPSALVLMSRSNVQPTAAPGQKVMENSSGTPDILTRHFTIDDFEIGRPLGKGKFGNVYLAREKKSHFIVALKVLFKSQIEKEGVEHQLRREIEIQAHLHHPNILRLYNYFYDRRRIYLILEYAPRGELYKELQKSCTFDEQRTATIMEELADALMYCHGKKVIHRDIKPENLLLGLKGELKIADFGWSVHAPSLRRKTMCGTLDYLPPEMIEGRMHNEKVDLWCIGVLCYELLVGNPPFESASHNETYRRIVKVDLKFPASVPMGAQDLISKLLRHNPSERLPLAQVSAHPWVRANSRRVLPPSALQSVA

[5] = target: T3, Histone-lysine N-methyltransferase SUV39H1 (Homo sapiens) (UniProt O43463); assay: Selectivity interaction (Transferase panel (protein, RNA, and DNA methyltransferases. and EP300 (acetyltransferase))) EUB0000270b SUV39H1
T3 sequence (whole entry): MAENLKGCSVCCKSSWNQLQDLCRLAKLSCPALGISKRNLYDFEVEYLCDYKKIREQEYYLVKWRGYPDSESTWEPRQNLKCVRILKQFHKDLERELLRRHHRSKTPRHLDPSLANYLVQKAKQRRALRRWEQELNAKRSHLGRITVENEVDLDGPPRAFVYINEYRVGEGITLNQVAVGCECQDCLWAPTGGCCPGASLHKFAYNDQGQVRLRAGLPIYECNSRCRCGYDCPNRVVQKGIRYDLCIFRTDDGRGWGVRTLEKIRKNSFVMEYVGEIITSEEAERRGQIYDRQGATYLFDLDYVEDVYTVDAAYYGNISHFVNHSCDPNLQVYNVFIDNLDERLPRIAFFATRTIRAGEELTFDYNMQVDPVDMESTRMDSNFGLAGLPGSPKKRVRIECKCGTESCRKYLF

[6] = target: Proto-oncogene tyrosine-protein kinase ROS (Homo sapiens) (UniProt P08922); assay: Selectivity interaction (ProQinase) EUB0000171b ROS1
Chain of Proto-oncogene tyrosine-protein kinase ROS (Homo sapiens) (P08922 whole entry): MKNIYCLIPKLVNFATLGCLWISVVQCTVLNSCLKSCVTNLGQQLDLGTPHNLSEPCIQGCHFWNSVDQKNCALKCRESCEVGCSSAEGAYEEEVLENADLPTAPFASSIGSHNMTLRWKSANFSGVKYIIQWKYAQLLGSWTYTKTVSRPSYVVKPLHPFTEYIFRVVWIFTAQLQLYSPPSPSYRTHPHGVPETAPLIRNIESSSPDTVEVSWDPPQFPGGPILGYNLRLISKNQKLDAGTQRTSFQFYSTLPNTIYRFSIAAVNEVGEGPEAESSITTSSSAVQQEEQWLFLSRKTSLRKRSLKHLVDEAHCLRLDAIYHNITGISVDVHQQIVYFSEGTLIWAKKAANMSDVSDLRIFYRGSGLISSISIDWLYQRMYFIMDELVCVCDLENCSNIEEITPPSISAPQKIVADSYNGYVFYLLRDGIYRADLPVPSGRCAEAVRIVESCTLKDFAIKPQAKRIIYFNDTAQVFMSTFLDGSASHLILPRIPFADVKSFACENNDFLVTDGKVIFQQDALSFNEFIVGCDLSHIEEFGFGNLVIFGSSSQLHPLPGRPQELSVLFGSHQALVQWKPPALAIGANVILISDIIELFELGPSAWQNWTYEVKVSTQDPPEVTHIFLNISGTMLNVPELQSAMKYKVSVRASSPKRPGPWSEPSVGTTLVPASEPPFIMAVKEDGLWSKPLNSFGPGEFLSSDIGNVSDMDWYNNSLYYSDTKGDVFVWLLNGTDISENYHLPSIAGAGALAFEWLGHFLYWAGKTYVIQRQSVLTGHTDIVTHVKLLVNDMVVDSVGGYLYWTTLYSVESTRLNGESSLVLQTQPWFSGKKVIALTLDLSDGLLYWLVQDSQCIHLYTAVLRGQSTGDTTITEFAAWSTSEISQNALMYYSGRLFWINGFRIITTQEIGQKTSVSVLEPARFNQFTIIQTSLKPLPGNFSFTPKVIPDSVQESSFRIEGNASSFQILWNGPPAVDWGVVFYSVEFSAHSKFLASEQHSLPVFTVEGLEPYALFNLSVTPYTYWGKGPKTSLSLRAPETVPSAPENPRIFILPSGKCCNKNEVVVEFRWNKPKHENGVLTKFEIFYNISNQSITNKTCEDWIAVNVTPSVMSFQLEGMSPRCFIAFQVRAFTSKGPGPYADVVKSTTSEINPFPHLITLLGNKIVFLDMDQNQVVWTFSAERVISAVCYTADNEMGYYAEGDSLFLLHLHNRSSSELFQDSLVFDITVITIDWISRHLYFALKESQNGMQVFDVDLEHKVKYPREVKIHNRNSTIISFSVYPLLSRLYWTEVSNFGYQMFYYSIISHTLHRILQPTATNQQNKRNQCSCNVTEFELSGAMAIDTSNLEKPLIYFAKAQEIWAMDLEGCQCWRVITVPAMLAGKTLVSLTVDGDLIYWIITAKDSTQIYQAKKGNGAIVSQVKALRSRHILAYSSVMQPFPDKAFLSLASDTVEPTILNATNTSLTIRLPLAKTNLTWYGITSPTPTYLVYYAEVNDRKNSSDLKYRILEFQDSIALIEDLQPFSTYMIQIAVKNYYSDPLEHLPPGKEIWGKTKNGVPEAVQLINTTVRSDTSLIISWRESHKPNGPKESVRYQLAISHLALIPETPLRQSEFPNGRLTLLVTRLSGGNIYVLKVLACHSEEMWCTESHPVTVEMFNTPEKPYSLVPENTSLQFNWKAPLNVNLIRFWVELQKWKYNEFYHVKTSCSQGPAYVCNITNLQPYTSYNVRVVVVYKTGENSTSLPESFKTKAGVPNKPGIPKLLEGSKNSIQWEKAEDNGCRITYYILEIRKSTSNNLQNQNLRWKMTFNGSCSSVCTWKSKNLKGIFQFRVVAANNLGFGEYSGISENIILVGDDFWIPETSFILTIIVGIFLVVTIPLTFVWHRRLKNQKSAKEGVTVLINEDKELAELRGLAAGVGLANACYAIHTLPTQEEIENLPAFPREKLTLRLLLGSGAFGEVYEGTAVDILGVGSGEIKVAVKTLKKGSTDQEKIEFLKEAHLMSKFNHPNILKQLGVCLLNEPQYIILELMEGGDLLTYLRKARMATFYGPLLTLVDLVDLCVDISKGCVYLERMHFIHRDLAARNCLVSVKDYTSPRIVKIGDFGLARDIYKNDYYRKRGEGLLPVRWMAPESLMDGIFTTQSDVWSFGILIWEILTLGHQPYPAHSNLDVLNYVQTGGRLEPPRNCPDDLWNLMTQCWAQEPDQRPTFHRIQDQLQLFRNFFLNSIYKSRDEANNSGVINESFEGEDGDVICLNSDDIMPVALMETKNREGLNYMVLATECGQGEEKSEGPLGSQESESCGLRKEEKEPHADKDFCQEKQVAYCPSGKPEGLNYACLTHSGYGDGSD

[7] = target: Receptor-interacting serine/threonine-protein kinase 2 (Homo sapiens, UniProt O43353); assay: Selectivity interaction (ProQinase) EUB0000171b RIPK2
Chain of Receptor-interacting serine/threonine-protein kinase 2 (O43353 whole entry): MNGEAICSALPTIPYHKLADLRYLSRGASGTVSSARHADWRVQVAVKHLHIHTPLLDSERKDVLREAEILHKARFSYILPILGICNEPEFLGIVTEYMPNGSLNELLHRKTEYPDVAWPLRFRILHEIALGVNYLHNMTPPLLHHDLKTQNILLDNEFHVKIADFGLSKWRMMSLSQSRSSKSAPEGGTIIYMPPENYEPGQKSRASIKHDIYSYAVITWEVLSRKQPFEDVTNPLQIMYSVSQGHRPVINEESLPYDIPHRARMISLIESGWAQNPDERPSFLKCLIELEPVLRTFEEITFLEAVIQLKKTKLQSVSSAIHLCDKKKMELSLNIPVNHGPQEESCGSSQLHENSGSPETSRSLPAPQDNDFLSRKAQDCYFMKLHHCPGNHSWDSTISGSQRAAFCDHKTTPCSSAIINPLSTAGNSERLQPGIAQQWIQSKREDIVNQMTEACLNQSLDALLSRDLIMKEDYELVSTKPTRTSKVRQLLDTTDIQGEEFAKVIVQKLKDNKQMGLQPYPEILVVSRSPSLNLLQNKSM

[8] = target: Fibroblast growth factor receptor 3 (Homo sapiens, UniProt P22607); assay: Selectivity interaction (Kinase panel (33PanQinase(R) Activity Assay)) EUB0000877a FGFR3
[9] = target: Dual specificity tyrosine-phosphorylation-regulated kinase 1A (Homo sapiens, UniProt Q13627); assay: Selectivity interaction (KinomeScan (DiscoverX)) EUB0000666a DYRK1A; conditions: at 10 µM

Compound: Nc1cnc(N2CCc3cc(S(=O)(=O)Nc4c(F)cc(Cl)cc4F)cc(N4CCCC4=O)c32)nc1 [TP-020n]
- % of control [1]: 99%
- % of control [2]: 78%

Compound: N#Cc1cccc(-c2c[nH]c3ncnc(N4CCOCC4)c23)c1
- % of control [3]: 100%

Compound: Cc1cc([C@@H](C)Nc2ccccc2C(=O)O)c2nc(N3CCOCC3)cc(=O)n2c1 [AZD-6482]
- % of control [4]: 100%

- % of inhibition (Aurora kinase B): 64.4%
Compound: CC[C@@H]1[C@H](F)C(=O)N[C@@H]1COc1nccc2cc(C(N)=O)c(OC)cc12 [ZIMLOVISERTIB]

- % activity ([5]; at 1 µM): > 90%
- % activity ([5]; at 10 µM): > 80%
Compound: Cc1cc(CN)cc(C)c1-c1ncn(C)c1-c1cncn1C

- % of control ([6]; at 1 µM): 87%
- % of control ([6]; at 5 µM): 74%
- % of control ([7]; at 1 µM): 77%
- % of control ([7]; at 5 µM): 43%
Compound: C=CC(=O)Nc1cccc(C(=O)Nc2ccc(Nc3cc(-c4[nH]c(SC)nc4C)ccn3)cc2)c1

- IC50 [8]: > 10 µM
Compound: CCC(=O)N1CC[C@H](Nc2ncnc3c2CN(c2cnc(OC)c(C(F)(F)F)c2)CC3)C1 [LENIOLISIB]

Compound: O=C(NOC[C@H](O)CO)c1ccc(F)c(F)c1Nc1ccc(I)cc1F
- % of control [9]: 100%
